These results are taken from patent publication US20250114313A1, “OLIGO-BENZAMIDE ANALOGS AND THEIR USE IN CANCER TREATMENT” (BOARD OF REGENTS, THE UNIVERSITY OF TEXAS SYSTEM, priority 2022, published 2025).

One data set concerns LIPA KO SUM-159 cells. In words: Live cell confocal imaging of ER tubule width, SUM-159 LIPA KO. The data set is classed as cell-based, Human. The conditions noted are these: 1 μM. The protocol:
(§1) Live cell confocal and Airyscan imaging: To visualize ER structure, stable SUM-159 cell lines expressing mCherry-RAMP4 were established. pLenti-X1-hygro-mCherry-RAMP4 was purchased from Addgene (Addgene #118391; //n2t.net/addgene:118391; RRID:Addgene_118391) (via Jacob Corn).^35 The live cell images were acquired by Confocal Zeiss LSM880 Airyscan. ER tubule width was calculated by drawing 1px-wide line scans perpendicular to the long axis of individual ER tubules. In MATLAB, the peak intensity along each line scan was determined and the distance between the half maximum intensity on either side of the peak was measured. The code for this analysis is available at: //github.com/andmoo91/HalfMaxScript.

Another data set deals with SUM-159 cells. In words: Airyscan / live cell confocal imaging of ER tubule width, SUM-159 mCherry-RAMP4. The data set is classed as cell-based, Human. The procedure: as §1
The next data set concerns the target T1, vinculin (Homo sapiens, UniProt P18206).
T1 construct: heat stability of LAL or vinculin protein in SUM-159 cells; endogenous in cells; host or cells: SUM-159
In words: Cellular thermal shift assay, vinculin. The conditions noted are these: 10 μM, SUM-159 cells. The data set is classed as binding. The protocol:
Cellular Thermal Shift Assay (CETSA): Cellular Thermal Shift Assays were performed as described previously^36. Briefly, cells were treated with DMSO or 10 μM ERX-41 for 30 min, then trypsinized, pelleted and resuspended in PBS supplemented with Halt protease inhibitor cocktail (Thermo Scientific), with DMSO or 10 μM ERX-41. Resuspended cells were aliquoted into PCR strips. The cells were incubated in thermal cycler (Bio-rad) at gradient temperatures for 3 minutes, followed by incubation at 25° C. for 3 minutes. Then cells were snap-frozen in liquid nitrogen. Freeze-thaw the cells twice using liquid nitrogen. Then transfer samples into Eppendorf tubes, followed by briefly vortex and centrifuge at 20,000 g for 20 minutes at 4° C. Mix cleared cell lysates with ⅓ volume of 4× Laemmli sample buffer. After boiling, cell lysates were resolved in SDS-PAGE followed by western blotting.

For the next data set, the system named is HMEC cells. Kind of data set: Live cell imaging with SYTOX Green, cell death in HMEC. Format: cell-based. The protocol: Live cell imaging: Live cell images were acquired by Lionheart FX automated microscope (BioTek). Cells were plated one day before the experiment. For cell death assay, 0.2 μM SYTOX Green was added into the plate 15 min before the experiment.

For the next data set, the system named is Sum159 cells. In words: DIA-MS of whole cell lysates. The data set is classed as cell-based, Human. The conditions noted are these: 500 nM, 6 h. The protocol: Mass spectrometry based DIA analyses of whole cell lysates: Sum159 cells were treated with vehicle or ERX-41 (500 nM). After 6 h of treatment, cells were pelleted and snap-frozen and then lysed in buffer containing 5% SDS/50 mM triethylammonium bicarbonate (TEAB) in the presence of protease and phosphatase inhibitors (Halt; Thermo Scientific) and nuclease (Pierce™ Universal Nuclease for Cell Lysis; Thermo Scientific). Aliquots corresponding to 100 μg protein (EZQ™ Protein Quantitation Kit; Thermo Scientific) were reduced with tris (2-carboxyethyl)phosphine hydrochloride (TCEP), alkylated in the dark with iodoacetamide and applied to S-Traps (mini; Protifi) for tryptic digestion (sequencing grade; Promega) in 50 mM triethylammonium bicarbonate (TEAB). Peptides were eluted from the S-Traps with 0.2% formic acid in 50% aqueous acetonitrile and quantified using Pierce™ Quantitative Fluorometric Peptide Assay (Thermo Scientific). Data-independent acquisition mass spectrometry (DIA-MS) was conducted on an Orbitrap Fusion Lumos mass spectrometer (Thermo Scientific). On-line HPLC separation was accomplished with an RSLC NANO HPLC system (Thermo Scientific/Dionex: column, PicoFrit™ (New Objective; 75 μm i.d.) packed to 15 cm with C18 adsorbent (Vydac; 218MS 5 μm, 300 Å); mobile phase A, 0.5% acetic acid (HAc)/0.005% trifluoroacetic acid (TFA) in water, mobile phase B, 90% acetonitrile/0.5% HAc/0.005% TFA/9.5% water; gradient 3 to 42% B in 120 min; flow rate, 0.4 μl/min. A pool was made of the 6 samples (three replicates from each group), and 2-μg peptide aliquots were analyzed using gas-phase fractionation and 4-m/z windows (30k resolution for precursor and product ion scans, all in the orbitrap) to create a DIA chromatogram library^40 by searching against a Prosit-generated predicted spectral library^41 based on the UniProt_human_20191022 protein sequence database. Experimental samples were blocked by replicate and randomized within each replicate for sample preparation and analysis; injections of 2 μg of peptides and a 2-h HPLC gradient were employed. […]

Where [1] appears, read: parental SUM-159, 1 μM, from ~200 nm.

SMILES strings stand for the structures.

T1 sequence (P18206 1-1066 isoform P18206-2): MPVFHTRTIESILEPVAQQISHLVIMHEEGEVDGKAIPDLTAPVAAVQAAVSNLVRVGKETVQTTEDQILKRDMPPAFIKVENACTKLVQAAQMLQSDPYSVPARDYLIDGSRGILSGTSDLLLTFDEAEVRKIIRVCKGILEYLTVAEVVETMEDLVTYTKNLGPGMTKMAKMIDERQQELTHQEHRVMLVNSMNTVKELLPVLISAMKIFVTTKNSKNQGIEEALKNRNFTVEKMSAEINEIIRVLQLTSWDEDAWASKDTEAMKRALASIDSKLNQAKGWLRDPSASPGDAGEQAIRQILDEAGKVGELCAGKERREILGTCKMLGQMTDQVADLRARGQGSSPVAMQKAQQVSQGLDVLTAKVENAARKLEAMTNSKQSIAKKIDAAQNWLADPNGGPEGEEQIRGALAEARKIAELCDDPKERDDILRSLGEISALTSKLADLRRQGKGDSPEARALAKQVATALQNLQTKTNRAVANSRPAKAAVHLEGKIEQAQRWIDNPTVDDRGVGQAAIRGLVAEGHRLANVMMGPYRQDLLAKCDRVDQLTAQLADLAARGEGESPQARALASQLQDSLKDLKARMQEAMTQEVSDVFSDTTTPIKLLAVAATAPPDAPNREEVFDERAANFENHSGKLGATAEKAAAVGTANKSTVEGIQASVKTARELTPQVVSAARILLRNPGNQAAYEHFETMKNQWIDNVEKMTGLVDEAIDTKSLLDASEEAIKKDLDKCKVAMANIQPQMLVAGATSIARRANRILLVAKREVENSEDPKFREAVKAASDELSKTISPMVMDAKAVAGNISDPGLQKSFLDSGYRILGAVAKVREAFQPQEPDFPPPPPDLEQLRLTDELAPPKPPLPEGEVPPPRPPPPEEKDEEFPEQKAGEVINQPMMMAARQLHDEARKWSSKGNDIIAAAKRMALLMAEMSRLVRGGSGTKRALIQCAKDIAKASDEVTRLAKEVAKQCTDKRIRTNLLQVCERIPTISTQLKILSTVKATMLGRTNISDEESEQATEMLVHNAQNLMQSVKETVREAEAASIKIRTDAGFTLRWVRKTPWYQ

For `CC(C)COc1cc(C(=O)Nc2ccc(C(=O)N[C@H]3CC[C@H](C)CC3)cc2OCC(C)C)ccc1NC(=O)c1ccc([N+](=O)[O-])c(OCCO)c1` [ERX-41], the “ER tubule diameter in LIPA KO cells” value with LIPA KO SUM-159 cells is “no significant changes in ER tubule diameter”. In addition, the “ER tubule width, mean±S.D., airyscan” value in the data set with SUM-159 cells (1 μM, 2 h, 0 h = 260±80 nm) stood at 660±320 nm. Further, in the data set with SUM-159 cells (discussion), the “measured ER dilation following treatment” value is listed as about 600 nm. In the data set on SUM-159 cells (setting [1]), the “ER tubule diameter, live cell confocal, 2 h” value is given as about 500 nm and the “ER tubule diameter, live cell confocal, 4 h” value was about 620 nm. For the same compound, the “thermal stability of vinculin” value on vinculin was “did not affect vinculin thermal stability”. Further, the “induction of cell death in HMEC” value in the data set on HMEC cells is given as “did not significantly induce cell death”. Further, in the data set on Sum159 cells, the “number of cellular proteins with significantly affected expression” value came to 189, the “number of down-regulated proteins” value is on record as 153 and the “number of up-regulated proteins” value was found to be 36.
